By IC50 is commonly meant the point on the concentration scale where inhibition reaches its midpoint.

Our source for the IC50 values is patent US7803801B2, “Aminopyridine compounds having Syk inhibitory activity” (Japan Tobacco, Inc., priority 2005, dated 2010).

For experiment [1], the system named is cultured human mast cells. Briefly: Degranulation inhibition test using cultured human mast cells (IgE cross-linking, β-Hexosaminidase release). To be noted: Mast cell; cultured human mast cells, anti-hIgE stimulation, β-Hexosaminidase index, average; read-out: human degranulation ave. IC50. It counts as cell-based. In short, it runs like this:
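CD34+ cord-blood cells cultured ≥8 weeks with SCF/IL-6/IL-3; FcεRI primed 5 days with rhIL-4 (1 ng/mL) and hIgE (0.5 μg/mL). Compound (0.1% DMSO) preincubated 10 min at 37 °C, then anti-IgE (final 10 μg/mL) 30 min; released β-hexosaminidase read at 405 nm versus total lysate, IC50 (M).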

The target in experiment [2] is GST-Syk Full Protein (human) (Homo sapiens, UniProt P43405). Briefly: Syk kinase inhibition test (HTRF method). As to conditions: HTRF, 100 μM ATP, 30 min room temperature, average; read-out: sykHTRF ave IC50. It counts as biochemical. In outline: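 Human GST-Syk full-length (6.4 nM) phosphorylated biotin-EDPDYEWPSA-NH2 (250 nM) with 100 μM ATP in HEPES pH 7.0/MgCl2 buffer, 2% DMSO, 30 min at room temperature. EDTA stop, then HTRF detection (streptavidin-XL665, Eu anti-phosphotyrosine) after 1 h; 665/620 ratio read.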

Where a name gives a salt, the structure may show the parent alone. Where only a bound is given, the exact number is not on record here.

Consider `Cc1ccnc(Nc2cccc(-c3cnc(CCc4ccc(CO)cc4)s3)n2)c1` [Compound A-159, [4-(2-{5-[6-(4-methylpyridin-2-ylamino)pyridin-2-yl]thiazol-2-yl}ethyl)phenyl]methanol], for which the IC50 is 0.1 to 1 µM in experiment [1] and less than 0.1 µM in experiment [2].

Take `CC(=O)N[C@H](c1ccc(OCc2ccccc2)cc1)c1ncc(-c2cccc(Nc3cc(C)ccn3)n2)s1` [Compound A-160]: the figures for the IC50 in experiment [1] and in experiment [2] were more than 1 µM and 0.1 to 1 µM, respectively.

`CC(=O)N[C@H](c1ccc(O)cc1)c1ncc(-c2cccc(Nc3cc(C)ccn3)n2)s1` [Compound A-161, N—((R)-(4-hydroxyphenyl)-{5-[6-(4-methylpyridin-2-ylamino)pyridin-2-yl]thiazol-2-yl}methyl)acetamide]: the results for the concentration for half-maximal inhibition (IC50) in experiment [1] and in experiment [2] were 0.1 to 1 µM and less than 0.1 µM, respectively.

`Cc1ccnc(Nc2cccc(-c3cnc(CCc4ccc(C(=O)NCCO)cc4)s3)n2)c1` [Compound A-162, N-(2-hydroxyethyl)-4-(2-{5-[6-(4-methylpyridin-2-ylamino)pyridin-2-yl]thiazol-2-yl}ethyl)benzamide]: the values for the half-inhibitory concentration (IC50) in experiment [1] and in experiment [2] were 0.1 to 1 µM and less than 0.1 µM, respectively.

For `COC(=O)CCNCc1ncc(-c2cccc(Nc3cc(C)ccn3)n2)s1` [Compound A-163], the concentration for half-maximal inhibition (IC50) was more than 1 µM in experiment [1] and 0.1 to 1 µM in experiment [2].

Take `COC(=O)CCN(Cc1ncc(-c2cccc(Nc3cc(C)ccn3)n2)s1)C(C)=O` [Compound A-164]: the concentration for half-maximal inhibition (IC50) is more than 1 µM in experiment [1] and 0.1 to 1 µM in experiment [2].

Take `Cc1ccnc(Nc2cccc(-c3cnc(CNCCC(=O)O)s3)n2)c1` [Compound A-165]: the half-inhibitory concentration (IC50) was more than 1 µM in experiment [1] and 0.1 to 1 µM in experiment [2].

In the case of `CC(=O)N[C@@H](C)c1ncc(-c2cccc(Nc3cc(OCCN(C)C)ccn3)n2)s1` [Compound A-166], the 50% inhibitory concentration (IC50) in experiment [1] and in experiment [2] was more than 1 µM throughout.

Turning to `CCOC(=O)C1CCN(Cc2ncc(-c3cccc(Nc4cc(C)ccn4)n3)s2)CC1` [Compound A-167], the half-inhibitory concentration (IC50) in experiment [1] was more than 1 µM; in experiment [2], 0.1 to 1 µM.

Turning to `Cc1ccnc(Nc2cccc(-c3cnc(CN4CCC(C(=O)O)CC4)s3)n2)c1` [Compound A-168], the half-inhibitory concentration (IC50) in experiment [1] is more than 1 µM; in experiment [2] it was 0.1 to 1 µM.

Turning to `Cc1ccnc(Nc2cccc(-c3cnc(CNC(=O)CC(=O)O)s3)n2)c1` [Compound A-169], the half-maximal inhibitory concentration (IC50) in experiment [1] is more than 1 µM; in experiment [2], 0.1 to 1 µM.

Regarding `COC(=O)N1CCC(c2ncc(-c3cccc(Nc4cc(C)ccn4)n3)s2)CC1` [Compound A-170], the IC50 in experiment [1] and in experiment [2] was 0.1 to 1 µM in each case.

Consider `Cc1ccnc(Nc2cccc(-c3cnc(CCCCC(=O)NS(C)(=O)=O)s3)n2)c1` [Compound A-171], for which the IC50 is more than 1 µM in experiment [1] and 0.1 to 1 µM in experiment [2].

As for `Cc1ccnc(Nc2cccc(-c3cnc(CCC4CCC(=O)CC4)s3)n2)c1` [Compound A-172, 4-(2-{5-[6-(4-methylpyridin-2-ylamino)pyridin-2-yl]thiazol-2-yl}ethyl)cyclohexanone], the IC50 in experiment [1] is 0.1 to 1 µM; in experiment [2], less than 0.1 µM.

Consider `Cc1ccnc(Nc2cccc(-c3cnc(CCC4CCC(O)CC4)s3)n2)c1` (stereo not drawn) [Compound A-173, 4-(2-{5-[6-(4-methylpyridin-2-ylamino)pyridin-2-yl]thiazol-2-yl}ethyl)cyclohexanol], for which the results for the 50% inhibitory concentration (IC50) in experiment [1] and in experiment [2] were 0.1 to 1 µM and less than 0.1 µM, respectively.

In the case of `Cc1ccnc(Nc2cccc(-c3cnc([C@H]4CC[C@H](C(=O)N5C[C@@H](O)[C@@H](O)C5)CC4)s3)n2)c1` [Compound A-174, ((3R,4S)-3,4-dihydroxypyrrolidin-1-yl)-(trans-4-{5-[6-(4-methylpyridin-2-ylamino)pyridin-2-yl]thiazol-2-yl}cyclohexyl)methanone], the results for the IC50 in experiment [1] and in experiment [2] were 0.1 to 1 µM and less than 0.1 µM, respectively.

Take `Cc1ccnc(Nc2cccc(-c3cnc([C@H]4CC[C@H](C(=O)NC(C)(C)CO)CC4)s3)n2)c1` [Compound A-175]: the concentration for half-maximal inhibition (IC50) in experiment [1] and in experiment [2] was 0.1 to 1 µM in each case.

Take `Cc1ccnc(Nc2cccc(-c3cnc([C@H]4CC[C@H](C(=O)N5CCNCC5)CC4)s3)n2)c1` [Compound A-176, (trans-4-{5-[6-(4-methylpyridin-2-ylamino)pyridin-2-yl]thiazol-2-yl}cyclohexyl)-(piperazin-1-yl)methanone]: the IC50 in experiment [1] was more than 1 µM; in experiment [2] it was less than 0.1 µM.

For the compound `Cc1ccnc(Nc2cccc(-c3cnc([C@@H](N)Cc4ccc(NC(=O)OCc5ccccc5)cc4)s3)n2)c1` [Compound A-177], the IC50 in experiment [1] was more than 1 µM; in experiment [2], 0.1 to 1 µM.

As for `CC(=O)N[C@@H](Cc1ccc(NC(=O)OCc2ccccc2)cc1)c1ncc(-c2cccc(Nc3cc(C)ccn3)n2)s1` [Compound A-178], the IC50 in experiment [1] and in experiment [2] was more than 1 µM throughout.

In the case of `CC(=O)Nc1ccc(C[C@H](NC(C)=O)c2ncc(-c3cccc(Nc4cc(C)ccn4)n3)s2)cc1` [Compound A-179], the concentration for half-maximal inhibition (IC50) in experiment [1] and in experiment [2] was 0.1 to 1 µM each time.

For `Cc1ccnc(Nc2cccc(-c3cnc([C@@H](N)Cc4ccc(N)cc4)s3)n2)c1` [Compound A-180], the IC50 in experiment [1] was more than 1 µM; in experiment [2], 0.1 to 1 µM.

On to `CC(=O)N(CCC(=O)O)Cc1ncc(-c2cccc(Nc3cc(C)ccn3)n2)s1` [Compound A-181], for which the half-inhibitory concentration (IC50) was more than 1 µM in experiment [1] and 0.1 to 1 µM in experiment [2].

On to `Cc1ccnc(Nc2cccc(-c3cnc(C4CCN(C(N)=O)CC4)s3)n2)c1` [Compound A-182, 4-{5-[6-(4-methylpyridin-2-ylamino)pyridin-2-yl]thiazol-2-yl}piperidine-1-carboxamide], for which the results for the IC50 in experiment [1] and in experiment [2] were 0.1 to 1 µM and less than 0.1 µM, respectively.

As for `Cc1ccnc(Nc2cccc(-c3cnc(C4CCN(C)CC4)s3)n2)c1` [Compound A-183], the concentration for half-maximal inhibition (IC50) in experiment [1] is more than 1 µM; in experiment [2] it was 0.1 to 1 µM.

For the compound `COC(=O)CN1CCC(c2ncc(-c3cccc(Nc4cc(C)ccn4)n3)s2)CC1` [Compound A-184], the half-inhibitory concentration (IC50) in experiment [1] and in experiment [2] was 0.1 to 1 µM each time.

Turning to `Cc1ccnc(Nc2cccc(-c3cnc(C4CCN(CC(=O)O)CC4)s3)n2)c1` [Compound A-185], the values for the IC50 in experiment [1] and in experiment [2] were more than 1 µM and 0.1 to 1 µM, respectively.

Regarding `Cc1ccnc(Nc2cccc(-c3cnc(CNC(=O)CCO)s3)n2)c1` [Compound A-186], the IC50 in experiment [1] and in experiment [2] was 0.1 to 1 µM each time.

With `Cc1ccnc(Nc2cccc(-c3cnc(C4CCN(C(=O)CO)CC4)s3)n2)c1` [Compound A-187, 2-hydroxy-1-(4-{5-[6-(4-methylpyridin-2-ylamino)pyridin-2-yl]thiazol-2-yl}piperidin-1-yl)ethanone], the half-maximal inhibitory concentration (IC50) in experiment [1] is 0.1 to 1 µM; in experiment [2], less than 0.1 µM.

Regarding `COc1ccnc(Nc2cccc(-c3cnc([C@H]4CC[C@H](C(=O)O)CC4)s3)n2)c1` [Compound A-188, trans-4-{5-[6-(4-methoxypyridin-2-ylamino)pyridin-2-yl]thiazol-2-yl}cyclohexanecarboxylic acid], the values for the IC50 in experiment [1] and in experiment [2] were 0.1 to 1 µM and less than 0.1 µM, respectively.

As for `Cc1ccnc(Nc2cccc(-c3cnc(C4CCN(CCO)CC4)s3)n2)c1` [Compound A-189], the IC50 in experiment [1] and in experiment [2] was 0.1 to 1 µM each time.

With `CC(=O)N1CCN(Cc2ncc(-c3cccc(Nc4cc(C)ccn4)n3)s2)CC1` [Compound A-190], the IC50 in experiment [1] and in experiment [2] was 0.1 to 1 µM throughout.

As to `Cc1ccnc(Nc2cccc(-c3cnc(CN[C@H]4CC[C@H](O)CC4)s3)n2)c1` [Compound A-191], the IC50 in experiment [1] and in experiment [2] was 0.1 to 1 µM in each case.

In the case of `Cc1ccnc(Nc2cccc(-c3cnc(C4CCN(C(=O)CC(=O)O)CC4)s3)n2)c1` [Compound A-192, 3-(4-{5-[6-(4-methylpyridin-2-ylamino)pyridin-2-yl]thiazol-2-yl}piperidin-1-yl)-3-oxopropionic acid hydrochloride], the IC50 in experiment [1] is more than 1 µM; in experiment [2], less than 0.1 µM.

In the case of `Cc1ccnc(Nc2cccc(-c3cnc(CN4CCOCC4)s3)n2)c1` [Compound A-193], the IC50 in experiment [1] and in experiment [2] was 0.1 to 1 µM in each case.

On to `Cc1ccnc(Nc2cccc(-c3cnc(CN4CCNCC4)s3)n2)c1` [Compound A-194, N-(4-methylpyridin-2-yl)-N-{6-[2-(piperazin-1-ylmethyl)thiazol-5-yl]pyridin-2-yl}amine], for which the half-inhibitory concentration (IC50) was 0.1 to 1 µM in experiment [1] and less than 0.1 µM in experiment [2].

Regarding `Cc1ccnc(Nc2cccc(-c3cnc(COC(=O)NCC4(O)CCCCC4)s3)n2)c1` [Compound A-195], the half-maximal inhibitory concentration (IC50) in experiment [1] and in experiment [2] was 0.1 to 1 µM throughout.

Turning to `Cc1ccnc(Nc2cccc(-c3cnc(CNCC4(O)CCCCC4)s3)n2)c1` [Compound A-196], the half-inhibitory concentration (IC50) in experiment [1] and in experiment [2] was 0.1 to 1 µM throughout.

As to `Cc1ccnc(Nc2cccc(-c3cnc(CN4CCC(N)CC4)s3)n2)c1` [Compound A-197, 1-{5-[6-(4-methylpyridin-2-ylamino)pyridin-2-yl]thiazol-2-ylmethyl}piperidin-4-ylamine], the IC50 was 0.1 to 1 µM in experiment [1] and less than 0.1 µM in experiment [2].

For the compound `Cc1ccnc(Nc2cccc(-c3cnc(CN4CCN(S(C)(=O)=O)CC4)s3)n2)c1` [Compound A-198], the IC50 in experiment [1] and in experiment [2] was 0.1 to 1 µM in each case.

As to `CC(=O)N[C@@H](C)c1ncc(-c2cccc(Nc3cc(C4(C)OCCO4)ccn3)n2)s1` [Compound A-199], the concentration for half-maximal inhibition (IC50) in experiment [1] and in experiment [2] was 0.1 to 1 µM throughout.

For the compound `Cc1ccnc(Nc2cccc(-c3cnc(CNS(C)(=O)=O)s3)n2)c1` [Compound A-200, N-{5-[6-(4-methylpyridin-2-ylamino)pyridin-2-yl]thiazol-2-ylmethyl}methanesulfonamide], the IC50 is 0.1 to 1 µM in experiment [1] and less than 0.1 µM in experiment [2].
